The subject of test [1] is blood-perfused sino-atrial preparation. Description: sinus rate on blood-perfused sino-atrial preparation. The arrangement: species or system dog. The note with it: for activation at 0.001 mg: dose 1.0 ug; for activation at 0.003 mg: dose 3.0 ug; for activation at 0.01 mg: dose 10.0 ug; for activation at 0.03 mg: dose 30.0 ug. The protocol: Determination of sinus rate on blood-perfused sino-atrial preparation: Mongrel gods of either sex weighing 7-12 kg were anesthetized with sodium pentoba rbital (30 mg/kg i.v.). Heparin ob 1000 unit/kg was administered to each animal intravenously and the animals were exsanguinated. Heart was removed and put in Krebs-Henseleit solution. Catheter was inserted into blood vessel between right coronary artery and SA nodes. Right atrium and catheter were together removed. Blood supplied from carotid artery of donor dog of either sex weighing 15-25 kg, was supplied to blood vessel cather from right coronary artery and SA node under constant blood pressure of 100 mmHG by use of Peristaltic pump. The resting tension of right atrial muscle was made to 2g. The sinus rate triggered by spontaneous contraction of atrial muscle was determined on Narco physiograph Narcotrace 4). Detailed method was reported by S. Chiba, et al. in Japanese Pharmacology 25, 433-439(1975). Doses of test compounds were injected into flowing blood in gum tube connected to the near part of the catheter inserted into right coronary artery. The effects on sinus rate were shown as percent compared with the sinus ratio prior to the injection of the test compounds.

The subject of test [2] is blood perfused papillary muscle preparation. As to the kind of experiment: contractile power on blood perfused papillary muscle preparation. Further details: species or system dog. Particulars: for activation at 0.001 mg: dose 1.0 ug; for activation at 0.003 mg: dose 3.0 ug; for activation at 0.01 mg: dose 10.0 ug; for activation at 0.03 mg: dose 30.0 ug; for ED 30 (developed tension of papillary muscle): least-square method. The protocol:
Determination of contractile power on blood perfused papillary muscle preparation:
Dogs of either sex weighing 7-12 kg were anesthetized with sodium pentobarbital (30 mg/kg, i.v.). Heparin of 1000 unit/kg was administered to each animal intravenously. The animals were exsanguinated and heart was removed. The preparation was perfused through the cannulated anterior septal artery (ASA) with arterial blood from a donor dog at constant pressure of about […]. Donor dogs were anesthetized with sodium pentobarbital (30 mg/kg, i.v.). Heparin of 1000 units/kg was administered intravenously. The papillary muscle was stimulated with rectangular pulses of 5- ms duration and about 1.5 times the threshold voltage at a rate of 120 stimuli/min through bipolar electrodes. Resting tension was made to 2 g. The developed tension of papillary muscle was determined by Isometric tresducer. Detailed method was reporated by Matsumoto in Am J. Physiol. 218, 1459-1463 (1970). Test compound at the doses of 10-30 ul was injected in flowing blood in the gum tube connected to catheter. The inotropic effect of the test compounds was shown by change percent of developed tension compared with that prior to the administration of the test compounds.

Test [3] has as its target T1, cyclic AMP phosphodiesterase (Canis lupus familiaris, UniProt A0A8I3NYE0).
T1 construct: Two to four grams of left ventricular muscle was obtained; from tissue; host or cells: dog left ventricular muscle, detergent-extracted particulate fraction, DEAE-cellulose pool
T1 sequence (A0A8I3NYE0 1-1135): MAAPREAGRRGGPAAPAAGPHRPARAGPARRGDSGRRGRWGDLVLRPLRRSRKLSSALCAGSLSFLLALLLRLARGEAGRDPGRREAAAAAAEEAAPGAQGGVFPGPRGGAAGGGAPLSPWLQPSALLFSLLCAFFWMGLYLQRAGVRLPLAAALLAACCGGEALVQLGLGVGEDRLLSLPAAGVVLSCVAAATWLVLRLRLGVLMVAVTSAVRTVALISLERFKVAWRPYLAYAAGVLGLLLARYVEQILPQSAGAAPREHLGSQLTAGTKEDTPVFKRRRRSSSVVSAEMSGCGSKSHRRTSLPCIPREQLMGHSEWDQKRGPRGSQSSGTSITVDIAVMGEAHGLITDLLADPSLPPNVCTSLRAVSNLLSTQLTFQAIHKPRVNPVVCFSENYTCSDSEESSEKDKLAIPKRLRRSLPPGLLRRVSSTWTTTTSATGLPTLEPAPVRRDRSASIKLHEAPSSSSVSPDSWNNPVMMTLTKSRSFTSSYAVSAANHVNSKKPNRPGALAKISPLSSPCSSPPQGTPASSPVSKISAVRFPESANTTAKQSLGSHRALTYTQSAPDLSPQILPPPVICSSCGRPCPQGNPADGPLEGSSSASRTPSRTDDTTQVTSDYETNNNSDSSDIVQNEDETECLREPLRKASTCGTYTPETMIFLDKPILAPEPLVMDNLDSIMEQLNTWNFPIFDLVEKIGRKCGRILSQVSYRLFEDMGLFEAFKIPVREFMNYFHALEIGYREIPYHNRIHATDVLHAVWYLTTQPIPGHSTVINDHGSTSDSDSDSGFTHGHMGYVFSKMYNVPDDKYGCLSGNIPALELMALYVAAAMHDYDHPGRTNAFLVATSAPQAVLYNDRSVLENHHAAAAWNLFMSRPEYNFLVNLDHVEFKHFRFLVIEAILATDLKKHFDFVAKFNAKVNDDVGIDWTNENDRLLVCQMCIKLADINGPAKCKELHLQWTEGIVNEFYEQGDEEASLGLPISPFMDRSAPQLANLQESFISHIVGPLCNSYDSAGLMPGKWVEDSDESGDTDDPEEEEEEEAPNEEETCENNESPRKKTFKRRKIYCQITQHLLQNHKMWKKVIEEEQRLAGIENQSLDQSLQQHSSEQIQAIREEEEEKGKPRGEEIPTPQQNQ
As to the kind of experiment: effect on cyclic AMP phosphodiesterase isolated from dog's heart. Format: biochemical. The note with it: substrate 1.0 uM; for inhibition at 10 µM / inhibition at 100 µM / Inhibitory effect on PDE activity: falls with concentration; for inhibition at 10 µM / inhibition at 100 µM: read-out: Inhibitory effect on PDE activity; for Inhibitory effect on PDE activity: unit assumed; for IC50: pH 8.0, read-out: IC 50 (50% inhibition of substrate hydrolysis).

The subject of the next test is anesthetized cats. Description: cardiotonic effect on anesthetized cats. Format: in vivo, cat. The note with it: Felis catus; for change in vivo at 0.01 mg/kg: 0.01 mg/Kg iv; for change in vivo at 0.1 mg/kg: 0.1 mg/Kg iv; for change in vivo at 0.31 mg/kg: 0.31 mg/Kg iv. On the procedure: Determination of cardiotonic effect on anesthetized cats: Male cats weighing about 3 kg were anesthetized with sodium pentobarbital (30 mg/kg, i.p.). The same anesthetic was infused intravenously at the does of 4 mg/kg/hr in order to maintain the anesthetic state and mechanically ventilated through a cuffed endotracheal tube, chest was opened by a midline incision and a catheter for measuring left ventricular pressure was inserted through apex into left ventricle and the left ventricular pressure was measured. LVdP/dt was determined by use of diffentiator from the left ventricular pressure. Systemic blood pressure was measured by the left femoral artery by a pressure transducer and heart rate was measured by a cardiotachometer triggered by blood pressure pulses. Test compound was injected into the femoral vein by use of cannule. After completion of the surgical procedures, the cats were allowed to recover about 30 minutes before drug administration. These compounds were dissolved in 0.9% physiological saline and diluted with saline. Solvent such as DMSO or DMF was also used, if necessary. Test compound of 0.1 ml/kg was used. Detailed method was reporated in J. Med. Chem. 30. 1279-87(1987).

[4] abbreviates: Canis lupus familiaris, read-out: change of sinus rate (%).
[5] abbreviates: Canis lupus familiaris, read-out: change of contractivity (%).

Several values for one entry are separate records, joined by “and”; a condition that tells them apart may be missing. Equal values may be shown once. Read-outs that look alike come from different tables or passages of the source.

`O=C1Nc2ccc(-n3cnc4ccccc43)cc2CO1` [6-(benzimidazol-1-yl)-(4H)-3,1-benzoxazin-2-one]: in test [1] (setting [4]), the activation at 0.001 mg worked out at 0%, the activation at 0.003 mg was found to be 0%, the activation at 0.01 mg was 0.3% and the activation at 0.03 mg worked out at 0.75%. In test [2] (setting [5]), the activation at 0.001 mg was 0%, the activation at 0.003 mg came out at 1.13%, the activation at 0.01 mg was found to be 2.63% and the activation at 0.03 mg was 5.24%. Further, the “ED 30 (developed tension of papillary muscle)” value in test [2] was greater than 1000 µg. Further, the inhibition at 10 µM in test [3] (10 uM test compound) worked out at 61.6%. Moreover, the inhibition at 100 µM in test [3] (100 uM test compound) was determined as 30.1%.
As to “6-(2-methylimidazol-1-yl)-(4H)-3,1-benzimidazol-2-one”, the Inhibitory effect on PDE activity in test [3] (0.1 uM test compound) amounted to 95.9%; in test [3] (1 uM test compound), 86.8%; in test [3] (10 uM test compound), 62.6%; in test [3] (100 uM test compound), 37.9%. In test [3], the IC50 was found to be 32.4 µM.
For the compound `Cc1nccn1-c1ccc2c(c1)COC(=O)N2` [6-(2-methylimidazol-1-yl)-(4H)-3,1-benzoxazine-2-one], in test [1] (setting [4]), the activation at 0.001 mg worked out at 0%, the activation at 0.003 mg came out at 0%, the activation at 0.01 mg turned out to be 0.86% and the activation at 0.03 mg was found to be 3.42%. In test [2] (setting [5]), the activation at 0.001 mg was 0%, the activation at 0.003 mg stood at 2.44%, the activation at 0.01 mg stood at 8.57% and the activation at 0.03 mg turned out to be 13.5%. Besides, in test [2], the “ED 30 (developed tension of papillary muscle)” value is greater than 1000 µg. Further, in test [3] (10 uM test compound), the inhibition at 10 µM worked out at 51.7%. For the same compound, the inhibition at 100 µM in test [3] (100 uM test compound) is 35.8%. In test [3], the IC50 is 12.8 µM.
Turning to `Cc1cn(-c2cc(C)c3c(c2)COC(=O)N3)cn1` [8-methyl-6-(4-methylimidazol-1-yl)-(4H)-3,1-benzoxazin-2-one], the change in vivo at 0.01 mg/kg with anesthetized cats (read-out: HR (%)) is 2%; with anesthetized cats (read-out: LV dp/dt (%)) it was 20%; in the test on anesthetized cats (read-out: LVP (%)) it was 0.1%; with anesthetized cats (read-out: SBP (%)), -1.7%; with anesthetized cats (read-out: dBP), -8.5%; in the test on anesthetized cats (read-out: mBP (%)) it was -5.5%. The change in vivo at 0.1 mg/kg was 7.5% with anesthetized cats (read-out: HR (%)); 50% in the test on anesthetized cats (read-out: LV dp/dt (%)); 4.4% with anesthetized cats (read-out: LVP (%)); -6.6% in the test on anesthetized cats (read-out: SBP (%)); -20% in the test with anesthetized cats (read-out: dBP); -13.9% with anesthetized cats (read-out: mBP (%)). Besides, the change in vivo at 0.31 mg/kg in the test on anesthetized cats (read-out: HR (%)) was 4.4%; with anesthetized cats (read-out: LV dp/dt (%)), 40%; in the test with anesthetized cats (read-out: LVP (%)) it was 1.2%; with anesthetized cats (read-out: SBP (%)) it was -3.4%; in the test with anesthetized cats (read-out: dBP), -14.3%; in the test on anesthetized cats (read-out: mBP (%)), -9.3%. The activation at 0.0001 mg was determined as 0.8% in test [1] (Canis lupus familiaris, dose 0.1 ug, read-out: change of sinus rate (%)) and 4.3% in test [2] (Canis lupus familiaris, dose 0.1 ug, read-out: change of contractivity (%)). For the same compound, the activation at 0.0003 mg in test [1] (Canis lupus familiaris, dose 0.3 ug, read-out: change of sinus rate (%)) came to 1.7%; in test [2] (Canis lupus familiaris, dose 0.3 ug, read-out: change of contractivity (%)) it was 8.7%. Also, the activation at 0.001 mg is 6.6% in test [1] (setting [4]) and 23.9% in test [2] (setting [5]). In addition, the activation at 0.003 mg in test [1] (setting [4]) came to 5.8%; in test [2] (setting [5]) it was 79.2%. In test [1] (at the ED 30 dose), the “change of sinus rate (%)” value is “+5.0%”. Moreover, the “ED 30 (developed tension of papillary muscle)” value in test [2] was 1.2 µg. In test [3], the IC50 was 2.4 µM and 4.3 µM and 4.05 µM.
On to `O=C1Nc2ccc(-n3ccnc3)cc2CO1` [6-(imidazol-1-yl)-(4H)-3,1-benzoxazin-2-one], for which, in test [1] (setting [4]), the activation at 0.001 mg stood at 0%, the activation at 0.003 mg was found to be 0.84%, the activation at 0.01 mg stood at 2.52% and the activation at 0.03 mg came out at 6.67%. Also, in test [2] (setting [5]), the activation at 0.001 mg came to 3.33%, the activation at 0.003 mg worked out at 6.95%, the activation at 0.01 mg came out at 9.76% and the activation at 0.03 mg was 16.2%. In addition, the “ED 30 (developed tension of papillary muscle)” value in test [2] was greater than 1000 µg. Moreover, the inhibition at 10 µM in test [3] (10 uM test compound) was found to be 60%. Besides, the inhibition at 100 µM in test [3] (100 uM test compound) was 41.8%. Besides, the IC50 in test [3] was 31 µM and 12.7 µM.

Values taken from patent US5171851A, “Imidazole substituted benzoxazine or benzothiazine derivatives” (Dong-A Pharm. Co., Ltd., priority 1990, dated 1992).
